Data taken from ChEMBL document CHEMBL1201862, “PubChem BioAssay data set” (2004).
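Method: 48-hour compound exposure of cells in 96-well plates, five concentrations, linear interpolation of endpoints. The concentration for 50% growth inhibition is given as GI50.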 Calls of active or inactive are those of the source. Rule as the data show it: active = GI50 up to about 1.1 µM and inactive = higher.

Tests used:
Assay in all cases: NCI anticancer screen, dose series, 48 h
[1] = test system: HOP-62
[2] = test system: EKVX
[3] = test system: HCC 2998
[4] = test system: NCI-H460
[5] = test system: SK-MEL-5
[6] = test system: UACC-257
[7] = test system: MCF7
[8] = test system: HT-29
[9] = test system: DU-145
[10] = test system: SW-620
[11] = test system: KM12
[12] = test system: UO-31
[13] = test system: HOP-92
[14] = test system: LOX IMVI
[15] = test system: NCI-H226
[16] = test system: MDA-MB-435
[17] = test system: MOLT-4
[18] = test system: PC-3
[19] = test system: SNB-19
[20] = test system: RPMI-8226
[21] = test system: OVCAR-8
[22] = test system: TK-10
[23] = test system: SF-539
[24] = test system: SK-MEL-2
[25] = test system: K562
[26] = test system: SR
[27] = test system: COLO 205
[28] = test system: T47D
[29] = test system: OVCAR-5
[30] = test system: UACC-62
[31] = test system: Hs-578T
[32] = test system: OVCAR-3
[33] = test system: CCRF-CEM
[34] = test system: SK-OV-3
[35] = test system: MDA-MB-231
[36] = test system: M14
[37] = test system: A498
[38] = test system: NCI-H23
[39] = test system: MDA-N
[40] = test system: OVCAR-4
[41] = test system: A549
[42] = test system: Malme-3M
[43] = test system: HL-60
[44] = test system: SK-MEL-28
[45] = test system: SN12C
[46] = test system: 786-0
[47] = test system: SF-295
[48] = test system: SF-268
[49] = test system: HCT-15
[50] = test system: NCI/ADR-RES
[51] = test system: ACHN
[52] = test system: U-251
[53] = test system: SNB-75
[54] = test system: RXF 393
[55] = test system: HCT-116
[56] = test system: NCI-H522
[57] = test system: CAKI-1
[58] = test system: IGROV-1

Measured: GI50

O=c1ss/c(=N\c2ccccc2)n1-c1ccccc1
inactive: [1] 20.6 µM | [2] 33.7 µM | [3] 36.8 µM | [4] 81.7 µM | [5] 32.4 µM | [6] 20.4 µM | [7] 19.5 µM | [8] 38.5 µM | [9] 16.9 µM | [10] 24.4 µM | [11] 30.8 µM | [12] 17.5 µM | [13] 21.6 µM | [14] 19.3 µM | [15] 20.1 µM | [16] 31.9 µM | [17] 28.7 µM | [18] 19.5 µM | [19] 62.5 µM | [20] 21.4 µM | [21] 16.8 µM | [22] 50.6 µM | [23] 35.9 µM | [24] 23.2 µM | [25] 21.8 µM | [26] 17.3 µM | [27] 26.1 µM | [28] 16.3 µM | [29] 40.2 µM | [30] 31.1 µM | [31] 32.4 µM | [32] 22.3 µM | [33] 4.14 µM | [34] > 100 µM | [35] 25.9 µM | [36] 19 µM | [37] > 100 µM | [38] 21.7 µM | [39] 34.5 µM | [40] 17 µM | [41] 35.4 µM | [42] > 100 µM | [43] 31.1 µM | [44] 36.9 µM | [45] 20.4 µM | [46] 18.3 µM | [47] > 100 µM | [48] 18.5 µM | [50] 28.3 µM | [51] 17.1 µM | [52] 23.2 µM | [53] 21.9 µM
17.8 µM: [49]

C=[N+](CNC(=O)CNC(=O)C(Cc1ccccc1)NC(=O)OC(C)(C)C)C(=O)CNC(=O)C(Cc1ccccc1)NC(=O)OC(C)(C)C (stereo not drawn)
inactive: [1] > 100 µM | [2] > 100 µM | [3] > 100 µM | [4] > 100 µM | [5] > 100 µM | [6] > 100 µM | [7] > 100 µM | [8] > 100 µM | [9] > 100 µM | [10] > 100 µM | [11] > 100 µM | [12] > 100 µM | [13] > 100 µM | [14] > 100 µM | [15] > 100 µM | [16] > 100 µM | [17] > 100 µM | [18] > 100 µM | [19] > 100 µM | [20] > 100 µM | [21] > 100 µM | [23] > 100 µM | [24] > 100 µM | [25] > 100 µM | [26] > 100 µM | [27] > 100 µM | [28] > 100 µM | [29] > 100 µM | [30] > 100 µM | [54] > 100 µM | [31] > 100 µM | [32] > 100 µM | [33] > 100 µM | [34] > 100 µM | [35] > 100 µM | [36] > 100 µM | [37] > 100 µM | [55] > 100 µM | [38] > 100 µM | [56] > 100 µM | [57] > 100 µM | [39] > 100 µM | [40] > 100 µM | [58] > 100 µM | [41] > 100 µM | [42] > 100 µM | [44] > 100 µM | [45] > 100 µM | [46] > 100 µM | [47] > 100 µM | [48] > 100 µM | [50] > 100 µM | [51] > 100 µM | [53] > 100 µM
> 100 µM: [49]

O=C(CCC(C(=O)OCc1ccccc1)C(=O)OCc1ccccc1)Nc1ccc(OCc2ccccc2)cc1
14 µM: [49]
inactive: [1] > 100 µM | [2] > 100 µM | [3] > 100 µM | [4] 59.4 µM | [6] > 100 µM | [7] 13.2 µM | [8] > 100 µM | [9] > 100 µM | [10] > 100 µM | [11] > 100 µM | [12] > 100 µM | [13] > 100 µM | [14] > 100 µM | [15] > 100 µM | [16] 67.8 µM | [17] 55.6 µM | [18] 17.6 µM | [19] 83.2 µM | [21] 14.7 µM | [22] 63.4 µM | [23] > 100 µM | [25] > 100 µM | [26] 99.1 µM | [27] 41 µM | [28] 91.6 µM | [29] > 100 µM | [30] > 100 µM | [54] 49.8 µM | [31] 52.7 µM | [32] > 100 µM | [33] 47.5 µM | [34] > 100 µM | [35] 22.6 µM | [36] > 100 µM | [37] 21 µM | [55] 14.3 µM | [38] 40.3 µM | [56] > 100 µM | [57] > 100 µM | [39] 49.8 µM | [40] 47.1 µM | [58] > 100 µM | [41] 35.9 µM | [42] > 100 µM | [43] > 100 µM | [44] > 100 µM | [45] > 100 µM | [46] 16.2 µM | [47] > 100 µM | [48] > 100 µM | [50] 60.4 µM | [51] > 100 µM | [52] 38.3 µM | [53] > 100 µM
